From ChEMBL document CHEMBL5137064, “Therapeutic Potential and Activity Modulation of the Protein Lysine Deacylase Sirtuin 5” (J Med Chem, 2022)
*1 amine or outer side, *2 acyl side, *3 side chain or, on linkers, in order; H or OH if unused. Where a SMILES comes first, the peptide text is derived from it. Side-chain parts run from the residue outwards. The star is where a group is joined. βAsp = O=C(O)[C@H](CC(=O)[*:2])N[*:1]; Cbz = O=C(OCc1ccccc1)*; Bz = O=C(c1ccccc1)*

What was measured:
[1] = biological target: T1, NAD-dependent protein deacylase sirtuin-5, mitochondrial (Homo sapiens, UniProt Q9NXA8); assay: Inhibition of SIRT5 deglutarylase activity (unknown origin)
Target sequence in this assay (Q9NXA8 whole entry): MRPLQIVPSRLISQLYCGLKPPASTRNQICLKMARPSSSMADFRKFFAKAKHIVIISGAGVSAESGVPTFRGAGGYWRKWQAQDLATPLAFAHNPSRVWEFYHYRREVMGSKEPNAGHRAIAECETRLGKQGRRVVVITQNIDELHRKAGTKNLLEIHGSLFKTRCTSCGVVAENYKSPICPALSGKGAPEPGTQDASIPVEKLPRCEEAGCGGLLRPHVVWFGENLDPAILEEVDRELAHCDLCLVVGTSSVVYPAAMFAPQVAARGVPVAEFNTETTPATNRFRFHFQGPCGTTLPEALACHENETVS

[2] = biological target: T1, NAD-dependent protein deacylase sirtuin-5, mitochondrial; assay: Inhibition of human recombinant SIRT5 using fluorogenic Benzyl-Lys(Succinyl)-AMC as substrate incubated for 2 hrs measured by fluoroscence based microplate reader method
Target sequence in this assay (Q9NXA8 whole entry): as above

[3] = biological target: T1, NAD-dependent protein deacylase sirtuin-5, mitochondrial; assay: Inhibition of SIRT5 (unknown origin) at 50 uM incubated for 15 mins by fluorometric assay relative to control
Target sequence in this assay (Q9NXA8 37-310 limits assumed): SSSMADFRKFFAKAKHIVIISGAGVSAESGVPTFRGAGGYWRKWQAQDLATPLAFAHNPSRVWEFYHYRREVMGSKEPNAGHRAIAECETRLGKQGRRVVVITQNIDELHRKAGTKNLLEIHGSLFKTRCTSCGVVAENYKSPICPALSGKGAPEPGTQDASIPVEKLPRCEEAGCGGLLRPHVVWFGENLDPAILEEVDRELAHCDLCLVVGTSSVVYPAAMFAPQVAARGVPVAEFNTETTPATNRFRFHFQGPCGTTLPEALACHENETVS

[4] = biological target: T2, NAD-dependent protein deacetylase sirtuin-3, mitochondrial (Homo sapiens) (UniProt Q9NTG7); assay: Inhibition of SIRT3 (unknown origin) at 50 uM incubated for 15 mins by fluorometric assay relative to control
T2 sequence (whole entry): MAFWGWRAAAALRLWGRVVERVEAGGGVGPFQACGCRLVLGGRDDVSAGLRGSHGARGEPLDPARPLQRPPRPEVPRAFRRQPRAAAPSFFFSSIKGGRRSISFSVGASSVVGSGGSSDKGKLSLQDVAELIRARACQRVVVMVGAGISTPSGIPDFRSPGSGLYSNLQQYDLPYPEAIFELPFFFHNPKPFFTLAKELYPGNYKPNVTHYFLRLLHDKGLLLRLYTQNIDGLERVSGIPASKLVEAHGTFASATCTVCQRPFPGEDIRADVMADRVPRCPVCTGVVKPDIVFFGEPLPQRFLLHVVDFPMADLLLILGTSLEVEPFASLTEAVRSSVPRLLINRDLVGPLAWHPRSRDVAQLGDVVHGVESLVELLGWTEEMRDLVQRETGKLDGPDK

[5] = biological target: T1, NAD-dependent protein deacylase sirtuin-5, mitochondrial; assay: Inhibition of SIRT5 desuccinylase activity (unknown origin) using succinyl-lysine as substrate
Target sequence in this assay (Q9NXA8 whole entry): as the sequence (Q9NXA8 whole entry) above

OCI-AML2 [6] = assay: cells; details: Homo sapiens
Description: Cytotoxicity against human OCI-AML2 cells

OCI-AML2 [7] = assay: Induction of apoptosis in human OCI-AML2 cells at 20 uM relative to control; type: functional
SKM-1 [8] = assay: Induction of apoptosis in human SKM-1 cells at 20 uM relative to control; type: functional
SKM-1 [9] = assay: cells; details: Homo sapiens
Description: Cytotoxicity against human SKM-1 cells

MOLM-13 = assay: Cytotoxicity against human MOLM-13 cells; type: functional, cell-based
[10] = biological target: T1, NAD-dependent protein deacylase sirtuin-5, mitochondrial; assay: Binding affinity to SIRT5 (unknown origin) assessed as deglutarylase activity by measuring inhibition constant
Target sequence in this assay (Q9NXA8 whole entry): as above

OCI-AML2 [11] = assay: Induction of apoptosis in human OCI-AML2 cells at 10 uM relative to control; type: functional
SKM-1 [12] = assay: Induction of apoptosis in human SKM-1 cells at 5 uM relative to control; type: functional
[13] = biological target: T1, NAD-dependent protein deacylase sirtuin-5, mitochondrial; assay: Binding affinity to SIRT5 (unknown origin) assessed as desuccinylation activity by measuring inhibition constant
Target sequence in this assay (Q9NXA8 whole entry): as above

[14] = biological target: T1, NAD-dependent protein deacylase sirtuin-5, mitochondrial; assay: Binding affinity to SIRT5 (unknown origin) assessed as desuccinylation activity by measuring dissociation constant
Target sequence in this assay (Q9NXA8 whole entry): as above

O=C(O)CCNC(=S)NCCCC[C@H](NS(=O)(=O)c1cccc(F)c1)C(=O)N[C@@H](Cc1c[nH]c2ccccc12)C(=O)NC1CCCC1
IC50 [1]: 0.23 µM

N#C/C(=C\c1ccc(-c2ccc(C(=O)O)cc2)o1)C(=O)Nc1ccc(C#N)c(C(F)(F)F)c1
IC50 [2]: 13.9 µM

O=C(CC[C@H](NC(=O)OCc1ccccc1)C(=O)O)NCCCC[C@H](NC(=O)OCc1ccccc1)C(=O)Nc1ccccc1
inhibition [3]: 42% | inhibition [4]: 8%

Cc1cc(C)cc(NC(=O)/C(C#N)=C/c2ccc(-c3ccc(C(=O)O)cc3)o2)c1
IC50 [2]: 37.9 µM

O=C(NC1CCC1)[C@H](Cc1c[nH]c2ccccc12)NC(=O)[C@H](CCCCNC(=S)NCCc1noc(=S)[nH]1)NS(=O)(=O)c1cccc(F)c1
IC50 [1]: 0.9 µM

N=C(N)NCCC[C@@H]1NC(=O)CCCCC(=O)NCCCC[C@@H](C(N)=O)NC(=O)[C@H](CCCCNC(=S)NCCC(=O)O)NC1=O
IC50 [5]: 6.5 µM

O=C(O)CCNC(=S)NCCCC[C@H](NS(=O)(=O)c1cccc(F)c1)C(=O)N[C@@H](Cc1c[nH]c2ccccc12)C(=O)NC1CC1
IC50 [1]: 0.26 µM

O=C(O)CCNC(=S)NCCCC[C@H](NS(=O)(=O)c1cccc(F)c1)C(=O)N[C@@H](Cc1c[nH]c2ccccc12)C(=O)NC1CCC1
IC50 (OCI-AML2 [6]): > 20 µM | Activity (OCI-AML2 [7]): 25% | Activity (SKM-1 [8]): >80% | IC50 (SKM-1 [9]): 10 µM | IC50 (MOLM-13): 29 µM | Ki [10]: 0.006 µM

N=C(N)NCCC[C@@H]1NC(=O)CCC(=O)NCCCC[C@@H](C(N)=O)NC(=O)[C@H](CCCCNC(=S)NCCC(=O)O)NC1=O
IC50 [5]: 4 µM

CC(C)NC(=O)[C@H](Cc1c[nH]c2ccccc12)NC(=O)[C@H](CCCCNC(=S)NCCC(=O)O)NC(=O)OCc1ccccc1
Activity (OCI-AML2 [11]): >80% | Activity (SKM-1 [12]): >80%

CC(=O)NCCCC[C@H](NC(=O)[C@H](CCCCNC(=S)NCCC(=O)O)NC(=O)C(CCCNC(=N)N)NC(C)=O)C(N)=O (some centres not stated)
IC50 [5]: 93.1 µM

Cc1ccc(NC(=O)/C(C#N)=C/c2ccc(-c3ccc(C(=O)O)cc3C)o2)cc1C
IC50 [2]: 57.4 µM

N#C/C(=C\c1ccc(-c2ccc(C(=O)O)cc2)o1)C(=O)Nc1ccc(Cl)c(C(F)(F)F)c1
IC50 [2]: 16.4 µM

CC(C)C[C@H](NC(=O)[C@@H](NC(=O)CNC(=O)c1ccccc1)C(C)C)C(=O)N[C@@H](CCCCNC(=O)C[C@H](NC(=O)OCc1ccccc1)C(=O)O)C(=O)N[C@@H](CCC(=O)O)C(=O)N[C@@H](Cc1ccc(O)cc1)C(=O)NCC(=O)N[C@H](C(N)=O)C(C)C (Bz-GVLK([βAsp-Cbz])EYGV-NH2)
Ki [13]: 38.1 µM | Kd [14]: 5.78 µM
